Holding throughout (format): in vivo
Data set [1] relates to anxiety-like behavior in mice. The experiment in a line: Open field assay after oral compound administration. The settings on record: varenicline 1.5 and 4.5 mpk, FIG. 5. From the text: FIG. 5 is a bar graph illustrating open field responses to oral administration of compounds.
Varenicline also influenced the mobility and anxiety-like behavior in mice.

In the next data set the test system is striatal dopamine levels. The experiment in a line: Striatal dopamine response to oral compound administration (GRAB-DA sensor, fiber photometry). The conditions noted are these: awake mice; mean for 30 minutes following compound administration; varenicline 1.5 and 4.5 mpk; FIG. 3A-3B. From the text:
(§1) FIG. 1A-FIG. 1B are a schematic and a response curve illustrating the monitoring of striatal dopamine in the awake behaving animal in response to varenicline. […] Scale bar, 200 μm.
FIG. 3A-FIG. 3B are a bar graph and a response curve illustrating the striatal dopamine responses to oral compound administration.
(§2) The ability of varenicline to decrease nicotine use comes from the ability to block nicotine-induced dopamine signaling in the striatum. Real-time sensing of dopamine levels in awake and behaving mice was measured using a fluorescent dopamine sensor (GRAB-DA) and fluorometric measurements of that sensor (Fiber Photometry).

Data set [2] relates to nicotine-induced dopamine signaling in the striatum. The experiment in a line: Nicotine-evoked striatal dopamine release after compound pretreatment (GRAB-DA sensor, fiber photometry). The conditions noted are these: awake mice pretreated with compound; IP nicotine 2 hours later; mean dopamine response for 30 minutes following nicotine; varenicline 1.5 and 4.5 mpk; FIG. 2A-2C.
Description: as §1
FIG. 2A-FIG. 2C are bar graphs and a response curve illustrating the striatal dopamine responses to nicotine. […] FIGS. 2B-2C show exemplary traces and quantification of striatal dopamine responses preceding and following an IP administration of nicotine. Mice were pretreated either with Varenicline (light grey) or Varenicline-Encarbil (dark grey).
as §2

In the case of `O=C(N[C@@H](CO)C(=O)O)c1ccc[n+](COC(=O)N2CC3CC(C2)c2cc4nccnc4cc23)c1` [Servarenicline Chloride], the “anxiety-like behavior: time spent in center of open field” value (“anxiety-like behavior: time spent” for short) in data set [1] is “not observed”. Moreover, the “striatal dopamine response following oral administration of compound” value in the data set on striatal dopamine levels is reported as “do not lead to dopamine release”. In data set [2], the “efficacy at reducing the nicotine-evoked release of dopamine” value is “better efficacy when compared directly to varenicline”.
`NCC(=O)N1CC2CC(C1)c1cc3nccnc3cc12` [Varenicline Glycinamide]: in data set [1], the “anxiety-like behavior: time spent” value is given as “not observed”. Moreover, in the data set with striatal dopamine levels, the “striatal dopamine response following oral administration of compound” value is “do not lead to dopamine release”.
For `N[C@@H](Cc1ccc(OC(=O)N2CC3CC(C2)c2cc4nccnc4cc23)cc1)C(=O)O` [Varenicline-CBT], in that order: “not observed” and “do not lead to dopamine release”.
As to `CC(OC(=O)C(C)C)OC(=O)N1CC2CC(C1)c1cc3nccnc3cc12` (stereo not drawn) [Varenicline-Encarbil], the “striatal dopamine response following oral administration of compound” value in the data set on striatal dopamine levels is reported as “mimic the effects of varenicline”. Moreover, the “efficacy at reducing the nicotine-evoked release of dopamine” value in data set [2] is “better efficacy when compared directly to varenicline”.
Regarding `c1cnc2cc3c(cc2n1)[C@@H]1CNC[C@H]3C1` [varenicline], the “anxiety-like behavior: time spent” value in data set [1] is given as “dramatically reduced time in the middle”. In addition, the “striatal dopamine response following oral administration of compound” value with striatal dopamine levels is recorded as “increased striatal dopamine levels after administration”. Also, in data set [2], the “efficacy at reducing the nicotine-evoked release of dopamine” value is listed as “regardless the dose of varenicline, the response to nicotine 2 hours later is the same”.

Values taken from patent US20250197398A1, “Varenicline Related Compounds and Methods for Treating Diseases and Conditions Including Tobacco Use Disorder” (SpaceRX LLC, priority 2022, published 2025).
